{
  "source": "patent US20110144047A1",
  "about": "“COMBINED METHOD FOR PREDICTING THE RESPONSE TO AN ANTI-CANCER THERAPY” (DAKO DENMARK A/S, priority 2008, published 2011)",
  "origin": "cited, not measured here",
  "test_system": "murine fibro sarcoma cells derived from TIMP-1 gene-deficient mice",
  "details": "in vitro; previously published by the inventors",
  "data": [
    {"smiles": "COc1cc([C@@H]2c3cc4c(cc3[C@@H](O[C@@H]3O[C@@H]5CO[C@@H](C)O[C@H]5[C@H](O)[C@H]3O)[C@H]3COC(=O)[C@H]23)OCO4)cc(OC)c1O", "note": "[etoposide]", "values": [
      {"measurement": "sensitivity of TIMP-1 gene-deficient cells compared with wild-type cells expressing TIMP-1", "value": "significantly more sensitive"}
    ]}
  ]
}
